Experiments:
Type in all cases: in vivo, Wistar rats
[1] = tested on: apomorphine-dependent erection; assay: Apomorphine-dependent erection in low-potency rats; conditions: compound 5 x 10 mg/kg intraperitoneally every 48 hours + apomorphine 0.1 mg/kg subcutaneously; 20 minutes monitoring; one value for the two compounds of the line
Description: One of the mechanisms regulating the sexual function of mammals is associated with functioning of the dopaminergic system of the brain. It is well known that a non-selective D1/D2 agonist apomorphine in low doses causes penile erection in rodents (Giuliano F., Allard J. Dopamine and male sexual function. Eur. Urol., 2001, 40 (6), 601-608; Giuliano F., Allard J., Rampin O. et. al. Pro-erectile effect of systemic apomorphine: existence of a spinal site action. J. Urol., 2002, 167 (1), 402-406; Brien S. E., Smallegange C., Gofton W. T., et. al. Development of a rat model of sexual performance anxiety: effect of behavioral and pharmacological hyperadrenergic stimulation on apomorphine-induced erections. Int. J. Impot. Res., 2002, 14 (2), 107-115.). In this connection, we have studied the effects of the compounds according to the invention on apomorphine-dependent erection in rats.
Nine groups of adult male Wistar rats weighing 350-450 g maintained at the normal (not inverted) light cycle were used in the experiments. To study the effect of the compounds on the sexual function, low-potency animals with a single erection were selected. Control group No. 1 (n=7) was composed of animals not injected with the compounds according to the invention. The animals of groups Nos. 2-9 (n=7) were injected with one of the compounds according to the invention selected from the group of compounds 2, 8, 9, 15, 19, 25, 31, 36, intraperitoneally in a course of 5 injections at a dose of 10 mg/kg with an interval between the injections 48 hours. Apomorphine was dissolved in 0.1% aqueous solution of ascorbic acid and then was injected to all animal subcutaneously at a dose of 0.1 mg/kg during 24-28 hours after the last injection of the compounds according to the invention. The monitoring of sexual activity was made individually for each animal immediately after the administration of apomorphine; the monitoring time was 20 minutes. The following indices were registered: the time of beginning of the first erection, time intervals between the erections, the number of erections for the entire period of observation.
The statistical analysis of the results was made using T-test and ξ-square test. The results are given in Table 3 as means±standard error of means.

[2] = tested on: physical dependence from morphine (morphine abstinence); assay: Morphine abstinence syndrome, signs scored in the open field test; conditions: Morphine − (morphine + compound); compound 3 x 20 mg/kg intramuscularly; one value for the three compounds
[3] = tested on: nitrites and nitrates (NOx-); assay: Measurement of nitrates/nitrites (NOx-) in brain regions after the morphine abstinence experiment; conditions: 3 x 20 mg/kg intramuscularly
Summary of the method: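 Rat brain regions homogenized in 20 mM HEPES pH 7.5 at 4 °C; deproteinized supernatants treated with nitrate reductase, 25 μM NADPH, 25 μM FAD (37 °C, 30 min), then DAN in acid; naphthotriazole fluorescence (ex 365/em 405 nm) against sodium nitrate standard, expressed as nmol/mg protein (Bradford).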

[4] = tested on: nitric oxide synthase (NOS); assay: Nitric oxide synthase activity in brain regions, radiometric [3H]L-citrulline method; conditions: 3 x 20 mg/kg intramuscularly
Summary of the method: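 Rat cortex, hippocampus, mesencephalon, striatum, brainstem, hypothalamus and cerebellum were homogenized in 20 mM HEPES pH 7.5, and the 11000 g supernatant was incubated 15-60 min at 37 °C with [3H]L-arginine, 0.2 mM CaCl2, FAD, FMN, NADPH and BH4. [3H]L-citrulline was counted after Dowex removal of arginine. Ca2+-dependent/independent activity was split using EDTA ± L-NAME, per mg Bradford protein.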

[5] = Groups Nos. 3-14, compound without morphine, one value for all 12 compounds
[6] = Morphine + compound, one value for the three compounds

SMILES: O=c1[nH][nH]c(=O)c2ncccc12.[K] [Compound 8, potassium salt of pyrido [2,3-d]-6H-pyridazine-5,8-dione]
- Latent period of first erection [1]: 5.21 ± 0.30 min
- Number of erection for the entire period of observation [1]: 3.13 ± 0.35
- Time between 1st and 2nd erections [1]: 3.94 ± 0.60 min
- Time between 3rd and 2nd erections [1]: 5.52 ± 1.14 min

SMILES: O=c1[nH]n([C@@H]2O[C@H](CO)[C@@H](O)[C@H]2O)c(=O)c2nccnc12.[Na] [Compound 19, sodium salt of 7-(β-D-ribofuranosile)pyrazino[2,3-d]-6H-pyridazine-5,8-dione]
- Latent period of first erection [1]: 5.24 ± 0.19 min
- Number of erection for the entire period of observation [1]: 3.29 ± 0.27
- Time between 1st and 2nd erections [1]: 3.75 ± 0.64 min
- Time between 3rd and 2nd erections [1]: 5.12 ± 0.87 min

SMILES: Nc1ncc2c(=O)[nH][nH]c(=O)c2n1.[Na] [Compound 36, sodium salt of 2-amino-pyrimido[4,5-d]-6H-pyridazine-5,8-dione]
- Latent period of first erection [1]: 5.12 ± 0.24 min
- Number of erection for the entire period of observation [1]: 3.32 ± 0.31
- Time between 1st and 2nd erections [1]: 3.34 ± 0.69 min
- Time between 3rd and 2nd erections [1]: 5.02 ± 1.01 min

SMILES: Nc1cccc2c(=O)[nH][nH]c(=O)c12.[Na] [Compound 15, sodium salt of 5-amino-benzo[d]-3H-pyridazine-1,4-dione]
- Latent period of first erection [1]: 5.09 ± 0.27 min
- Number of erection for the entire period of observation [1]: 3.24 ± 0.39
- Time between 1st and 2nd erections [1]: 3.87 ± 0.59 min
- Time between 3rd and 2nd erections [1]: 5.19 ± 0.78 min

SMILES: O=c1[nH]n([C@@H]2O[C@H](CO)[C@@H](O)[C@H]2O)c(=O)c2ccccc12.[Na] [Compound 9, sodium salt of 2-(β-D-ribofuranosile)benzo[d]-3H-pyridazine-1,4-dione]
- Latent period of first erection [1]: 5.09 ± 0.27 min
- Number of erection for the entire period of observation [1]: 3.24 ± 0.39
- Time between 1st and 2nd erections [1]: 3.87 ± 0.59 min
- Time between 3rd and 2nd erections [1]: 5.19 ± 0.78 min

SMILES: O=c1[nH][nH]c(=O)c2nccnc12.[Li] [Compound 25, lithium salt of pyrazino[2,3-d]-6H-pyridazine-5,8-dione]
- Latent period of first erection [1]: 5.24 ± 0.19 min
- Number of erection for the entire period of observation [1]: 3.29 ± 0.27
- Time between 1st and 2nd erections [1]: 3.75 ± 0.64 min
- Time between 3rd and 2nd erections [1]: 5.12 ± 0.87 min

SMILES: Nc1ncnc2c(=O)n([C@@H]3O[C@H](CO)[C@@H](O)[C@H]3O)[nH]c(=O)c12.[Na] [Compound 31, sodium salt of 4-amino-7-(β-D-ribofuranosile)pyrimido[4,5-d]-6H-pyridazine-5,8-dione]
- Latent period of first erection [1]: 5.12 ± 0.24 min
- Number of erection for the entire period of observation [1]: 3.32 ± 0.31
- Time between 1st and 2nd erections [1]: 3.34 ± 0.69 min
- Time between 3rd and 2nd erections [1]: 5.02 ± 1.01 min

SMILES: O=c1[nH][nH]c(=O)c2ncccc12.[Li] [Compound 6, lithium salt of pyrido [2,3-d]-6H-pyridazine-5,8-dione]
- Authentic differences (ξ-square criterion) in appearance of signs of abstinence: <<Wet dog>> shakes [2]: 1.0000
- Authentic differences (ξ-square criterion) in appearance of signs of abstinence: Aggression [2]: 0.8327
- Authentic differences (ξ-square criterion) in appearance of signs of abstinence: Convulsions [2]: 0.7821
- Authentic differences (ξ-square criterion) in appearance of signs of abstinence: Diarrhea [2]: 0.0046
- Authentic differences (ξ-square criterion) in appearance of signs of abstinence: Dyspnea [2]: 0.0722
- Authentic differences (ξ-square criterion) in appearance of signs of abstinence: Forelimb jogging [2]: 0.7821
- Authentic differences (ξ-square criterion) in appearance of signs of abstinence: Grit with teeth [2]: 0.7144
- Authentic differences (ξ-square criterion) in appearance of signs of abstinence: Mastication [2]: 0.1888
- Authentic differences (ξ-square criterion) in appearance of signs of abstinence: Piloerection [2]: 0.1847
- Authentic differences (ξ-square criterion) in appearance of signs of abstinence: Ptosis [2]: 0.0201
- Authentic differences (ξ-square criterion) in appearance of signs of abstinence: Rhinorrhea [2]: 0.3017
- Authentic differences (ξ-square criterion) in appearance of signs of abstinence: Squeak when touched [2]: 0.1888
- Nitrites, brainstem [3, 5]: 6.31 ± 0.58 nmol/mg of protein
- Nitrites, cerebellum [3, 5]: 6.66 ± 0.63 nmol/mg of protein
- Nitrites, cerebral cortex [3, 5]: 4.31 ± 0.37 nmol/mg of protein
- Nitrites, hippocampus [3, 5]: 6.47 ± 0.72 nmol/mg of protein
- Nitrites, hypothalamus [3, 5]: 6.77 ± 0.83 nmol/mg of protein
- Nitrites, midbrain [3, 5]: 6.65 ± 0.70 nmol/mg of protein
- Nitrites, striatum [3, 5]: 6.11 ± 0.29 nmol/mg of protein
- Nitrites, brainstem [3, 6]: 6.57 ± 0.72 nmol/mg of protein
- Nitrites, cerebellum [3, 6]: 5.46 ± 0.44 nmol/mg of protein
- Nitrites, cerebral cortex [3, 6]: 4.72 ± 0.37 nmol/mg of protein
- Nitrites, hippocampus [3, 6]: 5.44 ± 0.43 nmol/mg of protein
- Nitrites, hypothalamus [3, 6]: 6.57 ± 0.88 nmol/mg of protein
- Nitrites, midbrain [3, 6]: 5.50 ± 0.48 nmol/mg of protein
- Nitrites, striatum [3, 6]: 3.57 ± 0.42 nmol/mg of protein
- Activity of NOS, hippocampus [4, 5]: 3.09 ± 0.16 nmol/min/mg of protein
- Activity of NOS, hypothalamus [4, 5]: 5.45 ± 0.24 nmol/min/mg of protein
- Activity of NOS, midbrain [4, 5]: 2.60 ± 0.29 nmol/min/mg of protein
- Activity of NOS, striatum [4, 5]: 1.26 ± 0.08 nmol/min/mg of protein
- Activity of NOS, hippocampus [4, 6]: 2.70 ± 0.14 nmol/min/mg of protein
- Activity of NOS, hypothalamus [4, 6]: 5.26 ± 0.28 nmol/min/mg of protein
- Activity of NOS, midbrain [4, 6]: 1.83 ± 0.23 nmol/min/mg of protein
- Activity of NOS, striatum [4, 6]: 1.24 ± 0.08 nmol/min/mg of protein

SMILES: Nc1ccnc2c(=O)n([C@@H]3O[C@H](CO)[C@@H](O)[C@H]3O)[nH]c(=O)c12.[Na] [Compound 2, sodium salt of 4-amino-7-(β-D-ribofuranosile)pyrido[2,3-d]-6H-pyridazine-5,8-dione]
- Latent period of first erection [1]: 5.21 ± 0.30 min
- Number of erection for the entire period of observation [1]: 3.13 ± 0.35
- Time between 1st and 2nd erections [1]: 3.94 ± 0.60 min
- Time between 3rd and 2nd erections [1]: 5.52 ± 1.14 min

From US7776833B2, “Use of cyclic bioisosters of purine system derivatives for treating diseases produced by disorders of niterergic and dopaminergic systems” (priority 2003, dated 2010)
